Columns and labels:
5-HT3 = molecular target: T1, 5-HT3 (Homo sapiens, UniProt P46098); assay: PDSP primary binding 5-HT3; conditions: 1.5 h; primary binding, 10,000 nM; last figure of the line = mean of the 4 before it; read-out: 5-HT3, PDSP raw data, mean
T1 construct: purchased NIMH Psychoactive Drug Screening Program (PDSP)
T1 sequence (P46098 24-478): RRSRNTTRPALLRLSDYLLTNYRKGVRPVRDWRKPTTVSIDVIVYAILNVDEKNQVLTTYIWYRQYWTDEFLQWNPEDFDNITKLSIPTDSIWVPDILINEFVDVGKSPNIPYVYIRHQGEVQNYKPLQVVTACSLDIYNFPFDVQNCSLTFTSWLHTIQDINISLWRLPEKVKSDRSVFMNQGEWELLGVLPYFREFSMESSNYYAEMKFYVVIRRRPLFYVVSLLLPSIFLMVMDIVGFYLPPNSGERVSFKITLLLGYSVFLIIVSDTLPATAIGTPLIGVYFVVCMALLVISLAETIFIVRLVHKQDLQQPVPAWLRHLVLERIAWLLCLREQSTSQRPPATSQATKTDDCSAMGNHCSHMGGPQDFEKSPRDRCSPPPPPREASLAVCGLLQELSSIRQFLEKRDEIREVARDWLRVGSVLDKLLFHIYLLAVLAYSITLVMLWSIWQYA
Procedure: (§1) To determine if any off-target receptor-binding effects are present, all the novel ligands were sent to the National Institute of Mental Health (NIMH), Psychoactive Drug Screening Program (PDSP). The ligands were screened over a panel of 47 receptors, ion channels, and transporters to determine any other possible interactions with […]. The hERG-binding was also determined. […] No binding of the test compounds to calcium channels was observed. […] It is necessary to screen the compounds for hERG-binding during the early process of drug discovery. The unintentional binding of many drugs to hERG can cause blockade of hERG K+ channels in the heart, which can cause many side effects including cardiac arrhythmias and sudden death. […] All of the α5 imidazodiazepines were tested for hERG-binding.
(§2) The NIMH PDSP assay protocol book [https://kidbdev.med.unc.edu/databases/PDSP%20Protocols%20II%202013-03-28.pdf accessed on 23 April 2023]. describes the protocols for primary and secondary radio-ligand binding assays. These assays were carried out in a final volume of 125 µL per well in the appropriate binding buffer.
(§3) The binding of a ligand to a receptor, ion channel, or transporter was determined in the […] of 10 µM of the appropriate reference compound. […] Plates were incubated in the dark for 90 min at rt, and the reactions were stopped by vacuum filtration onto 0.3% polyethyleneimine (PEI) soaked 96-well filter mats using a 96-well Filtermateharvester. This was followed by three washes with cold PBS buffer. Radioactivity was then counted on a Microbeta counter. Nonlinear regression was used to analyze the data with N = 6 replicates.

5-HT4 = molecular target: T2, 5-HT4 (Homo sapiens, UniProt Q13639); assay: PDSP primary binding 5-HT4; conditions: 1.5 h; primary binding, 10,000 nM; last figure of the line = mean of the 4 before it; read-out: 5-HT4, PDSP raw data, mean
T2 construct: purchased NIMH Psychoactive Drug Screening Program (PDSP)
T2 sequence (Q13639 whole entry): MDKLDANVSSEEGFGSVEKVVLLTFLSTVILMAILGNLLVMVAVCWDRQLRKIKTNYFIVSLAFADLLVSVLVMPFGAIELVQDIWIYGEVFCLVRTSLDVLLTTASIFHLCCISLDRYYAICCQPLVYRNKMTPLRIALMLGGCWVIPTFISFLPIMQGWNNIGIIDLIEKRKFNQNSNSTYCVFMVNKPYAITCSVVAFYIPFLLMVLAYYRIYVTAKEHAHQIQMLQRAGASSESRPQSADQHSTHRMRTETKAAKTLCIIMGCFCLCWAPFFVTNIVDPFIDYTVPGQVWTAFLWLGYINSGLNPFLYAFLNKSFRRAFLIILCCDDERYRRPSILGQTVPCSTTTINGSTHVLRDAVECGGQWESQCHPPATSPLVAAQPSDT
Procedure: as §1, §2, §3

Beta3 = molecular target: T3, Beta3 (Homo sapiens, UniProt P13945); assay: PDSP primary binding Beta3; conditions: 1.5 h; primary binding, 10,000 nM; last figure of the line = mean of the 4 before it; read-out: Beta3, PDSP raw data, mean
T3 construct: purchased NIMH Psychoactive Drug Screening Program (PDSP)
T3 sequence (P13945 whole entry): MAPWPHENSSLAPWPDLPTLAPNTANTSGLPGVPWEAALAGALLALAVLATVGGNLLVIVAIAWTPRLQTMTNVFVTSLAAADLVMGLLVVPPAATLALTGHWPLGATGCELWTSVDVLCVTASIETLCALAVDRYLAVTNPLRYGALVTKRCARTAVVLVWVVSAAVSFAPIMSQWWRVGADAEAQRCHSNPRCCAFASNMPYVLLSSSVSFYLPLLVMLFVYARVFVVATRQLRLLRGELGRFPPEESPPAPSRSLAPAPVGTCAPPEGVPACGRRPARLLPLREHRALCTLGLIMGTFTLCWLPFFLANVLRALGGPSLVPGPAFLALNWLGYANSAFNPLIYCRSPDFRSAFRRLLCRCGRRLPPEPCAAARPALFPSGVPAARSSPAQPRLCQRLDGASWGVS
Procedure: as §1, §2, §3

D4 = molecular target: T4, D4 (Homo sapiens, UniProt P21917); assay: PDSP primary binding D4; conditions: 1.5 h; primary binding, 10,000 nM; last figure of the line = mean of the 4 before it; read-out: D4, PDSP raw data, mean
T4 construct: purchased NIMH Psychoactive Drug Screening Program (PDSP)
T4 sequence (P21917 1-419): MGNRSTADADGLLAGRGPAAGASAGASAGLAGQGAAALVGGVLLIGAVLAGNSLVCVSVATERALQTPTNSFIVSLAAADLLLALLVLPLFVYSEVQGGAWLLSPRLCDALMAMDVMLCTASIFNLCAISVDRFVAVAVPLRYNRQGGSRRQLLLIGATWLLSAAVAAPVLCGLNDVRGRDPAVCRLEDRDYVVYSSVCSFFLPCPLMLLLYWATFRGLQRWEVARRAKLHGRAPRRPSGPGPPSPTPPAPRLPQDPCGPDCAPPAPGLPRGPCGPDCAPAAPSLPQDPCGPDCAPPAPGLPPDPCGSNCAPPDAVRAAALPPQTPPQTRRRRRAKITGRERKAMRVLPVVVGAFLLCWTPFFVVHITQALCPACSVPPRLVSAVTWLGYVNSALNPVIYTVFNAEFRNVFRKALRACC
Procedure: as §1, §2, §3

M1 = molecular target: T5, M1 (Homo sapiens, UniProt P11229); assay: PDSP primary binding M1; conditions: primary binding, 10,000 nM; last figure of the line = mean of the 4 before it; read-out: M1, PDSP raw data, mean
T5 construct: purchased NIMH Psychoactive Drug Screening Program (PDSP)
T5 sequence (P11229 1-460): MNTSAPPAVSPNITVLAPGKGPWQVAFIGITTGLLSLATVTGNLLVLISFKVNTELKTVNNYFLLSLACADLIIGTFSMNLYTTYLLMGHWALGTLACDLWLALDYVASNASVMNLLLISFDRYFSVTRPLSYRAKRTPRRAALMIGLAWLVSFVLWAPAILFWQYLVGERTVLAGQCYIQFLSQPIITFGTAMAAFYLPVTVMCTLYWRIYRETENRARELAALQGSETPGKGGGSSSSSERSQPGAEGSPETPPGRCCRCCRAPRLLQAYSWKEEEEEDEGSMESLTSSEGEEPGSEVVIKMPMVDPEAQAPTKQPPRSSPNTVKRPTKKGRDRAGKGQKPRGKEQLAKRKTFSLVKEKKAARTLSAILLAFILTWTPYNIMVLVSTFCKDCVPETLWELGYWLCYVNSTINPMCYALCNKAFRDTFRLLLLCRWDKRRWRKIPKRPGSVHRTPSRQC
Procedure: as §1, §2, §3

V1B = molecular target: T6, V1B (Homo sapiens, UniProt P47901); assay: PDSP primary binding V1B; conditions: primary binding, 10,000 nM; last figure of the line = mean of the 4 before it; read-out: V1B, PDSP raw data, mean
T6 construct: purchased NIMH Psychoactive Drug Screening Program (PDSP)
T6 sequence (P47901 1-424): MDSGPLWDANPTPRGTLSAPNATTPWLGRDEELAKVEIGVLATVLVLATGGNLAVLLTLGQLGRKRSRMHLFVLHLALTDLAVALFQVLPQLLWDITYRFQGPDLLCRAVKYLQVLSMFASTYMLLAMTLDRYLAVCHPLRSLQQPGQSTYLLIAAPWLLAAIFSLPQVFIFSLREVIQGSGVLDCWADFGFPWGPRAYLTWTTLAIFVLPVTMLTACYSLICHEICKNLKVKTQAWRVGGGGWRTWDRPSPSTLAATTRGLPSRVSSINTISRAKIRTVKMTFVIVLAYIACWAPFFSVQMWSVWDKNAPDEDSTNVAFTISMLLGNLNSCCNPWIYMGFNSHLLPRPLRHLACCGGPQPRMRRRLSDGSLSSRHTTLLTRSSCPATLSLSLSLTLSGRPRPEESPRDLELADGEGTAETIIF
Procedure: as §1, §2, §3

Structure (SMILES) | inhibition at 10 µM (5-HT3) [%] | inhibition at 10 µM (5-HT4) [%] | inhibition at 10 µM (Beta3) [%] | inhibition at 10 µM (D4) [%] | inhibition at 10 µM (M1) [%] | inhibition at 10 µM (V1B) [%]
C[C@H]1N=C(c2ccccc2F)c2cc(-c3ccccc3)ccc2-n2cnc(C(=O)N(C)C)c21 [Compound 5, (R)-6-(2′-Fluorophenyl)-N,N,4-trimethyl-8-phenyl-4H-benzo[f]imidazo[1,5-a][1,4]diazepine-3-carboxamide] | -0.89 | -14.4 | -19.4 | -4.45 | -1.6 | 1.4
C#Cc1ccc2c(c1)C(c1ccccc1Cl)=N[C@H](C)c1c(C(=O)NC)ncn1-2 [Compound 21, (R)-6-(2′-Chlorophenyl)-8-ethynyl-N,4-dimethyl-4H-benzo[f]imidazo[1,5-a][1,4]diazepine-3-carboxamide] | 2.85 | 4 | 10.7 | 2.12 | -8.29 | 45.8
C#Cc1ccc2c(c1)C(c1ccccn1)=N[C@@H](C)c1c(C(=O)NC)ncn1-2 [Compound 23, (S)-8-Ethynyl-N,4-dimethyl-6-(pyridin-2′-yl)-4H-benzo[f]imidazo[1,5-a][1,4]diazepine-3-carboxamide] | -7.15 | -1.06 | 0.63 | 3.79 | -12 | -4.18
C#Cc1ccc2c(c1)C(c1ccccc1Cl)=N[C@H](C)c1c(C(=O)N(C)CC)ncn1-2 [Compound 29] | -4.07 | -6.11 | 9.72 | 1.36 | 4.95 | 11
C#Cc1ccc2c(c1)C(c1ccccn1)=N[C@@H](C)c1c(C(=O)N(C)C)ncn1-2 [Compound 31, (S)-8-Ethynyl-N,N,4-trimethyl-6-(pyridin-2′-yl)-4H-benzo[f]imidazo[1,5-a][1,4]diazepine-3-carboxamide] | -3.58 | -0.81 | -6.68 | -0.38 | -20 | 24.3
C#Cc1ccc2c(c1)C(c1ccccc1F)=N[C@H](C)c1c(C(=S)N(C)C)ncn1-2 [Compound 33, (R)-8-Ethynyl-6-(2′-fluorophenyl)-N,N,4-trimethyl-4H-benzo[f]imidazo[1,5-a][1,4]diazepine-3-carbothioamide] | -0.89 | -14.4 | -19.4 | -4.45 | -1.6 | 1.4
CCc1noc(-c2ncn3c2[C@@H](C)N=C(c2ccccc2F)c2cc(-c4ccccc4)ccc2-3)n1 [Compound 35, (R)-3-Ethyl-5-(6-(2′-fluorophenyl)-4-methyl-8-phenyl-4H-benzo[f]imidazo[1,5-a][1,4]diazepin-3-yl)-1,2,4-oxadiazole] | -9.33 | -0.48 | 27.9 | 6.05 | -1.63 | 21
CCc1noc(-c2ncn3c2[C@@H](C)N=C(c2ccccc2F)c2cc(Cl)ccc2-3)n1 [Compound 36, (R)-5-(8-Chloro-6-(2′-fluorophenyl)-4-methyl-4H-benzo[f]imidazo[1,5-a][1,4]diazepin-3-yl)-3-ethyl-1,2,4-oxadiazole] | -2 | -12.3 | 1.76 | -4.5 | -0.27 | 22.9
CC(C)c1noc(-c2ncn3c2[C@@H](C)N=C(c2ccccc2F)c2cc(Cl)ccc2-3)n1 [Compound 37, (R)-5-(8-Chloro-6-(2′-fluorophenyl)-4-methyl-4H-benzo[f]imidazo[1,5-a][1,4]diazepin-3-yl)-3-isopropyl-1,2,4-oxadiazole] | 13.5 | 48 | 46 | -10.1 | -0.48 | -15.4
C[C@H]1N=C(c2ccccc2F)c2cc(Cl)ccc2-n2cnc(-c3nc(C4CC4)no3)c21 [Compound 38, (R)-5-(8-Chloro-6-(2′-fluorophenyl)-4-methyl-4H-benzo[f]imidazo[1,5-a][1,4]diazepin-3-yl)-3-cyclopropyl-1,2,4-oxadiazole] | 13.5 | 38.7 | 24.2 | -3.44 | -0.23 | -7.2
CCc1noc(-c2ncn3c2CN=C(c2ccccc2F)c2cc(C4CC4)ccc2-3)n1 [Compound 44, 5-(8-Cyclopropyl-6-(2′-fluorophenyl)-4H-benzo[f]imidazo[1,5-a][1,4]diazepin-3-yl)-3-ethyl-1,2,4-oxadiazole] | 12.8 | -9.26 | -4.01 | -4.07 | 9.28 | 35.7
CCc1noc(-c2ncn3c2[C@@H](C)N=C(c2ccccc2F)c2cc(C4CC4)ccc2-3)n1 [Compound 46, (R)-5-(8-Cyclopropyl-6-(2′-fluorophenyl)-4-methyl-4H-benzo[f]imidazo[1,5-a][1,4]diazepin-3-yl)-3-ethyl-1,2,4-oxadiazole] | 29.8 | 3.05 | 31.1 | 10.6 | 0.86 | 2.67

From article PMC10303271, “Synthesis and Receptor Binding Studies of α5 GABAAR Selective Novel Imidazodiazepines Targeted for Psychiatric and Cognitive Disorders” (Molecules, 2023)
